From US20230122393A1, “STEROIDAL NITRONE F2 FOR USE IN THE PREVENTION AND/OR TREATMENT OF PERMANENT CEREBRAL ISCHAEMIA” (ISQUAEMIA BIOTECH, S.L., priority 2020, published 2023)
“Also recorded” adds a separate entry of the source.

Legend:
[1] = test system: transient focal cerebral ischemia (tMCAO); experiment: Infarct volume by TTC staining after tMCAO; type: in vivo, mice; details: 48 h; for infarct volume (as percentages): VEH 19.15±1.08
[2] = test system: transient forebrain ischemia (global cerebral ischemia); experiment: Dose-response of neuroprotection (Fluoro-Jade B and TUNEL) in transitory global cerebral ischemia, four-vessel occlusion; details: for half effective concentration: i.v. at onset of reperfusion; for half effective concentration / maximal effect (percentage of neuroprotection): 5 days of reperfusion
Experimental: Animal model of global cerebral ischemia, experimental design and administration of nitrones. Transient forebrain ischemia was induced in adult male Wistar rats (10-12 weeks, Charles River) by the standard four-vessel occlusion model (4V0) previously described. Briefly, both vertebral arteries were irreversibly occluded by electrocoagulation under anaesthesia with a mixture of atropine, ketamine and diazepam (0.25, 62.5, and 5 mg/kg, respectively) administered by intraperitoneal injection. After 24 h, ischemia was induced by carotid occlusion with atraumatic clips for 15 min and then clips were removed from the carotid arteries to allow reperfusion. Body temperature of 37° C. was maintained. Animals were studied at 5 days after reperfusion (R5d). […] The treatments were performed with allocation concealment, assigning a random order to each vehicle or treated animal by a computer-generated randomization program. Ischemic animals were treated with nitrone F2 diluted in 10% ethanol in saline as vehicle by intravenous injection in the tail when the carotid arteries were unclamped for reperfusion. Vehicle-treated control animals were handled in the same way as treated animals. An independent investigator prepared the treatments for each animal according to the randomization schedule.
(§1) Brain sections. After 5 days after reperfusion, R5d animals were killed by transcardiac perfusion performed under deep anaesthesia. Perfusion via left ventricle was started with a washout of 200 mL of 0.9% NaCl, and the brains, following perfusion and fixation with 4% (w/v) paraformaldehyde solution in PBS, were removed and postfixed in the same solution overnight at 4° C. Brains were washed sequentially with 10, 20 and 30% (w/v) saccharose in PBS, embedded in Tissue-Tek O.C.T. (Sakura Finetek) and frozen at −80° C. prior to cryostat sectioning. Brain coronal sections containing the hippocampus were prepared at the level of interaural +5.7±0.2 mm on Real Capillary Gap microscope slides (Dako).
(§2) Neuronal death evaluation. Neuronal death was evaluated by Fluoro-Jade-B staining. Brain cryosections (10 μm thick) from ischemic animals that underwent reperfusion for 5 days were used after fixation to detect neuronal death by Fluoro-Jade-B staining (Ayuso et al. 2015 J. Med. Chem. 58, 6704-6709; 10.1021/acs.jmedchem.5b00755) and visualized by fluorescence microscopy. Labelled (dead) neuronal cells (in green) were counted as in TUNEL assay (see below). Data from different animals of each experimental group were independently analysed by two observers, and treatment information was blindly performed throughout the study.
TUNEL assay. Apoptotic neurons within brain sections were detected using the Terminal deoxynucleotidyl transferase-mediated dUTP Nick-End Labeling (TUNEL) assay (Promega). For this test, 5-μm-thick coronal cryostat brain sections containing the dorsal hippocampal formation were obtained as described above and post-fixed with 4% formaldehyde in PBS for 5 min at room temperature. After washing in PBS for three times, sections were permeabilized with 0.1 M sodium citrate, pH 6.0, for 1 min at 95° C., quickly cooled in ice and washed in PBS for 5 min at room temperature. Then, brain sections were incubated with blocking solution (0.1 M Tris-HCl, pH 7.5, 3% bovine serum albumin and 20% fetal bovine serum), washed in PBS for 5 min, and post-fixed with 4% formaldehyde in PBS for 5 min.

global cerebral ischemia [3] = experiment: Therapeutic window of the neuroprotective effect in global cerebral ischemia; type: in vivo, rat
[4] = test system: global cerebral ischemia, hippocampal CA1 and cortical regions; experiment: Neuronal apoptosis by TUNEL assay, therapy window study in global cerebral ischemia; details: 5 d
Experimental: Animal model of global cerebral ischemia, experimental design and administration of nitrones. Transient forebrain ischemia was induced in adult male Wistar rats (10-12 weeks, Charles River) by the standard four-vessel occlusion model (4V0) previously described. Briefly, both vertebral arteries were irreversibly occluded by electrocoagulation under anaesthesia with a mixture of atropine, ketamine and diazepam (0.25, 62.5, and 5 mg/kg, respectively) administered by intraperitoneal injection. After 24 h, ischemia was induced by carotid occlusion with atraumatic clips for 15 min and then clips were removed from the carotid arteries to allow reperfusion. Body temperature of 37° C. was maintained. Animals were studied at 5 days after reperfusion (R5d). […] The treatments were performed with allocation concealment, assigning a random order to each vehicle or treated animal by a computer-generated randomization program. […] Vehicle-treated control animals were handled in the same way as treated animals. An independent investigator prepared the treatments for each animal according to the randomization schedule.
as §1
TUNEL assay. Apoptotic neurons within brain sections were detected using the Terminal deoxynucleotidyl transferase-mediated dUTP Nick-End Labeling (TUNEL) assay (Promega). For this test, 5-μm-thick coronal cryostat brain sections containing the dorsal hippocampal formation were obtained as described above and post-fixed with 4% formaldehyde in PBS for 5 min at room temperature. After washing in PBS for three times, sections were permeabilized with 0.1 M sodium citrate, pH 6.0, for 1 min at 95° C., quickly cooled in ice and washed in PBS for 5 min at room temperature. Then, brain sections were incubated with blocking solution (0.1 M Tris-HCl, pH 7.5, 3% bovine serum albumin and 20% fetal bovine serum), washed in PBS for 5 min, and post-fixed with 4% formaldehyde in PBS for 5 min. […]
The hippocampal CA1 subfield and cerebral and lateral cortex fields from a given section were analysed with fluorescence microscopy (40× objective) to count the number of apoptotic nuclei (green).

global cerebral ischemia [5] = experiment: Neurological deficit score (NDS), therapy window study in global cerebral ischemia; details: 5 d
Experimental: Animal model of global cerebral ischemia, experimental design and administration of nitrones. Transient forebrain ischemia was induced in adult male Wistar rats (10-12 weeks, Charles River) by the standard four-vessel occlusion model (4V0) previously described. Briefly, both vertebral arteries were irreversibly occluded by electrocoagulation under anaesthesia with a mixture of atropine, ketamine and diazepam (0.25, 62.5, and 5 mg/kg, respectively) administered by intraperitoneal injection. After 24 h, ischemia was induced by carotid occlusion with atraumatic clips for 15 min and then clips were removed from the carotid arteries to allow reperfusion. Body temperature of 37° C. was maintained. Animals were studied at 5 days after reperfusion (R5d). […] Vehicle-treated control animals were handled in the same way as treated animals.
Evaluation of neurological deficits. Neurological deficits in rats subjected to global cerebral ischemia were blindly evaluated using a scale previously described (Ayuso et al. 2015 J. Med. Chem. 58, 6704-6709; 10.1021/acs.jmedchem.5b00755). […]
Animals were subjected to a functional test before sacrifice in order to quantify their potential disability. […]
The variables quantified to evaluate de neuroprotection of NXY-059, including neurological deficit score (NDS) and neuronal death and apoptosis in brain sections, were performed as described in Example 3. […]

SOD1 = SOD1 protein levels by western blot in primary neuronal cultures subjected to OGD and recovery
Experimental: Primary Neuronal Cultures. […] Cell suspensions from cerebral cortex were prepared from 16- to 17-day-old Sprague-Dawley rat embryos. Living cells in cell suspension were counted by trypan blue exclusion method. Cells were seeded on plastic multidishes precoated with 0.05 mg/mL poly-D-lysine at a density of 2.5×10^5 cells/cm2 and were kept at 37° C. in a 6.5% CO2 atmosphere in high glucose Dulbecco's medium supplemented with 15% heat-inactivated (56° C. for 30 min) foetal calf serum. […]
Exposure of Cell Cultures to Oxygen—Glucose Deprivation. […] F2 were analysed independently from 4 to 8 times with different batches of cultures, and each experiment was run in quadruplicate.
35-50 μg of protein cell extracts was resolved in 10 or 12% SDS-PAGE and blotted into a polyvinylidene difluoride (PVDF) membrane (GE Healthcare). […] Then, membranes were incubated with horseradish peroxidase-conjugated secondary antibodies for 1 h, developed with the ECL-Clarity (Bio-Rad) or Prime systems (GE Healthcare) and detected in a ChemiDoc imager (Bio-Rad).
The images were quantified using the quantification software ImageLab and Quantity One (Bio-Rad Laboratories). The protein levels were expressed as intensities in arbitrary units (AU).

[6] = test system: permanent focal cerebral ischemia (pMCAO); experiment: Infarct area/volume by TTC staining after permanent MCA occlusion (pMCAO); type: in vivo, mice; details: F2 0.1 mg/kg i.p. at 2 and 12 hours after MCA occlusion
[7] = test system: primary neuronal cultures subjected to oxygen and glucose deprivation; details: reference [17]; cited from earlier work
global cerebral ischemia [8] = experiment: Y-maze spatial recognition or alternation test, long-term after global cerebral ischemia; details: i.v. at onset of reperfusion, before sacrifice at 11 weeks, vs healthy control
Experimental: (§3) In addition, animal behaviour was evaluated before sacrifice for the neurological evolution evaluation.
(§4) Animals were subjected to two behavioural tests for their neurological evaluation prior to sacrifice in order to assess the exploratory activity and spatial recognition and memory; the Y-maze paradigm was used to assess these functions. For the first test, the animal is positioned in the centre of the maze, allowing free exploration for 8 minutes. Exploratory activity is quantified and represented as an activity index. For the assessment of the spatial recognition and memory, the number of times the animals alternate among the three arms (triad number) is evaluated and quantified as an alternation index. Lower activity and/or alternation indexes are indications of reduced curiosity and spatial memory and consequently higher neurological deficit.

[9] = test system: global cerebral ischemia, hippocampal CA1 region; experiment: Long-term viable neurons (S6-positive cells) in hippocampal CA1 11 weeks after global cerebral ischemia; details: i.v. at onset of reperfusion; 11 weeks (77 days) after reperfusion
Experimental: Animal model of global cerebral ischemia, experimental design and administration of nitrones. Transient forebrain ischemia was induced in adult male Wistar rats (10-12 weeks, Charles River) by the standard four-vessel occlusion model (4V0) previously described. Briefly, both vertebral arteries were irreversibly occluded by electrocoagulation under anaesthesia with a mixture of atropine, ketamine and diazepam (0.25, 62.5, and 5 mg/kg, respectively) administered by intraperitoneal injection. After 24 h, ischemia was induced by carotid occlusion with atraumatic clips for 15 min and then clips were removed from the carotid arteries to allow reperfusion. Body temperature of 37° C. was maintained. Animals were studied at 5 days after reperfusion (R5d). A power analysis was performed (http://www.biomath.info/power/ttest.htm) to determine the sample size. The level of statistical significance was fixed at 0.05, the power set at 0.8 (80%), and the sample size obtained was <6 subjects per group. The treatments were performed with allocation concealment, assigning a random order to each vehicle or treated animal by a computer-generated randomization program. […]
Because of this, a new experimental strategy had to be used, based on the staining of viable neurons and its quantification in the areas of the brain more vulnerable to the ischemic episodes such as the hippocampal CA1 region. […]

[10] = test system: lipid peroxidation and ROS levels; details: preliminary results, reference [17]; cited from earlier work
[11] = test system: permanent focal cerebral ischemia (pMCAO); experiment: Somatosensory evoked potentials after permanent MCA occlusion (pMCAO); details: F2 0.1 mg/kg i.p. at 2 and 12 h; 72 hours post-stroke and during total time of study (3 weeks)
Experimental: Evaluation of functional brain territory in stroke mice with pMCAO and treated with F2. (A) Representative somatosensory evoked contralateral potentials recorded before and 72 hours post-stroke in treated (F2) and non-treated (vehicle, control) mice. F2 was administered at 2 and 12 hours after MCA ligation. […] In both groups, the electrical stimulus was twice the current level necessary to obtain a supramaximal motor response, typically 1-2 mA. (B) Amplitude of evoked activity in the somatosensory cortex (forepaw sensory field) in the infarcted (left panel) and non-infarcted (right panel) hemispheres of non-treated (vehicle) and treated (F2) mice over time after stroke. […] Data are presented as the means ±SEM. For every time point analysed, the black asterisks denote significant differences between non-treated (vehicle) and treated (F2) mice (two-way ANOVA followed by Tukey's test; *p<0.05, **p<0.05).
Ipsilateral activity in stroke mice with pMCAO and treated with F2. […] (C) Amplitude of somatosensory evoked activity (forepaw sensory field) in the non-damaged hemisphere of non-treated (vehicle) and treated (F2) mice over time after stroke and F2 or vehicle administration.
Here, the neuroprotective efficacy of this nitrone has been assayed in a model of permanent focal cerebral ischemia in mice. […]

global cerebral ischemia [12] = experiment: Y-maze exploration activity test, long-term after global cerebral ischemia; details: i.v. at onset of reperfusion, before sacrifice at 11 weeks, vs healthy control
Experimental: as §3, §4

global cerebral ischemia [13] = details: intraperitoneal at onset of reperfusion; reference [17]; cited from earlier work
[14] = test system: global cerebral ischemia, hippocampal CA1 and cortical regions; experiment: Neuronal death by Fluoro-Jade B staining, therapy window study in global cerebral ischemia; details: 5 d
Experimental: Animal model of global cerebral ischemia, experimental design and administration of nitrones. Transient forebrain ischemia was induced in adult male Wistar rats (10-12 weeks, Charles River) by the standard four-vessel occlusion model (4V0) previously described. Briefly, both vertebral arteries were irreversibly occluded by electrocoagulation under anaesthesia with a mixture of atropine, ketamine and diazepam (0.25, 62.5, and 5 mg/kg, respectively) administered by intraperitoneal injection. After 24 h, ischemia was induced by carotid occlusion with atraumatic clips for 15 min and then clips were removed from the carotid arteries to allow reperfusion. Body temperature of 37° C. was maintained. Animals were studied at 5 days after reperfusion (R5d). […] Ischemic animals were treated with nitrone F2 diluted in 10% ethanol in saline as vehicle by intravenous injection in the tail when the carotid arteries were unclamped for reperfusion. Vehicle-treated control animals were handled in the same way as treated animals.
After 5 days after reperfusion, R5d animals were killed by transcardiac perfusion performed under deep anaesthesia. Perfusion via left ventricle was started with a washout of 200 mL of 0.9% NaCl, and the brains, following perfusion and fixation with 4% (w/v) paraformaldehyde solution in PBS, were removed and postfixed in the same solution overnight at 4° C. Brains were washed sequentially with 10, 20 and 30% (w/v) saccharose in PBS, embedded in Tissue-Tek O.C.T. (Sakura Finetek) and frozen at −80° C. prior to cryostat sectioning. Brain coronal sections containing the hippocampus were prepared at the level of interaural +5.7±0.2 mm on Real Capillary Gap microscope slides (Dako).
as §2
Analysis of results included neuronal damage and death, and a functional test to which the animals were subjected prior to sacrifice. All the results were obtained 5d after post-ischemic reperfusion in a model of global cerebral ischemia.

[15] = test system: transient focal cerebral ischemia (tMCAO); experiment: Grip strength test after transient middle cerebral artery occlusion (tMCAO); details: for grip strength: 24 hours after reperfusion, VEH 91.76±2.00
Experimental: Transient occlusion of a distal branch of the middle cerebral artery (tMCAO) was induced in male C57BL/6 mice (9-12-week-old, Charles River). […] Briefly, mice were anesthetized with 4% isoflurane for induction and 1.5-2% isoflurane for maintenance (in 79% N2/21% 02). After drilling a small hole on the temporal bone, the middle cerebral artery (MCA) was compressed for 60 min with a 30-G needle using a micromanipulator. During the surgery, body temperature was maintained at 37.0±0.5° C. using a homoeothermic blanket and CBF was monitored using laser-Doppler flowmetry to confirm MCA occlusion. Buprenorphine (0.05-0.1 mg/kg) was administered subcutaneously immediately before the procedure. […] Surgical inclusion criteria: a reduction in blood flow to <25% of baseline value during ischemia period, and a recovery of 75% of baseline value in the reperfusion period. […] The treatments were administered intraperitoneally at the onset of reperfusion period by an investigator blinded to the experimental condition.
Motor functional test was performed at 1 day before surgery and 24 h and 48 h after tMCAO to evaluate ischemic outcomes and monitor motor function by a blinded researcher to experimental conditions. […] A total of 6 trials were conducted for each test and the strength value was calculated as the mean of them.

[16] = F2 0.05 mg/kg i.v. 48 h after reperfusion

Compound: CC(C)CCC[C@@H](C)[C@H]1CC[C@H]2[C@@H]3CCC4=C/C(=[N+](\C)[O-])CC[C@]4(C)[C@H]3CC[C@]12C [F2, (E)-N-((8S,9S,10R,13R,14S,17R)-10,13-dimethyl-17-((R)-6-methylheptan-2-yl)-7,8,9,11,12,13,14,15,16,17-decahydro-1H-cyclopenta[a]phenanthren-3(2H,6H,10H)-ylidene)methanamine oxide]
- decrease of infarct volume respect to NXY059 ([1]; 0.1 mg/kg F2, p<0.05): 20.27%
- decrease of infarct volume respect to control VEH ([1]; 0.1 mg/kg F2, p<0.05): 15.20%
- infarct volume (as percentages) ([1]; F2 0.1 mg/kg i.p. at onset of reperfusion): 16.24±0.85%
- half effective concentration ([2]; cerebral cortex): 0.015 mg/kg
- maximal effect (percentage of neuroprotection) ([2]; cerebral cortex, reached at 0.05 mg/kg i.v. at onset of reperfusion): 81%
- most effective dose in decreasing neuronal death and apoptosis ([2]; doses 0.01-0.1 mg/kg i.v., 5 days after reperfusion): 0.05 mg/kg
- maximal effect (percentage of neuroprotection) ([2]; hippocampal region CA1, at 0.05 mg/kg i.v. at onset of reperfusion): 35%
- half effective concentration ([2]; hippocampal region CA1): 0.025 mg/kg
- administration time of maximum neuroprotective effect after reperfusion onset (global cerebral ischemia [3]; F2 0.05 mg/kg i.v.): 0 to 3 h
- therapeutic window of neuroprotective effect, time after onset of reperfusion (global cerebral ischemia [3]; F2 0.05 mg/kg i.v.): ≤ 6 h
- neuronal apoptosis (TUNEL) vs vehicle ([4]; F2 0.05 mg/kg i.v. at 6 h after reperfusion): significant in both hippocampus and cerebral cortex
- neuronal apoptosis (TUNEL) vs vehicle ([4]; F2 0.05 mg/kg i.v. at 48 h after reperfusion): did not afford a significant decrease in the apoptosis
- neuronal apoptosis (TUNEL) vs vehicle ([4]; F2 0.05 mg/kg i.v., maximum effect at 0-3 hours after onset of reperfusion): significant reduction of apoptosis
- neurological deficit score (NDS) vs vehicle (global cerebral ischemia [5]; [16]): did not improve the NDS
- SOD1 levels (SOD1; 5 μM F2, 2 h after OGD, vs untreated and control groups): significant increase of SOD1 levels
- enhancement of the SOD1 increase caused by OGD alone (SOD1; 5 μM F2, 24 h after OGD): 15%
- infarct volume vs vehicle [6]: significantly reduces infarct volume
- infarcted area (TTC staining) vs non-treated ([6]; 48 hours): lower infarcted area
- neuroprotective effect (cell viability) after OGD [7]: good neuroprotective effect in the micromolar range
- alternation index (spatial recognition test, Y-maze) (global cerebral ischemia [8]): no significant differences when compared to the scores of the control group
- viable neurons (S6-positive cells) in hippocampal CA1 [9]: significantly preserves neuronal viability
- lipid peroxidation and ROS levels [10]: both decreased
- somatosensory evoked cortical response, damaged hemisphere (right) [11]: preserved cortical response
- activity index (exploration activity test, Y-maze) (global cerebral ischemia [12]): activity scores that were equivalent to those observed in the control group
- neuronal death and apoptosis in hippocampus and cortex (global cerebral ischemia [13]): decreased neuronal death and apoptosis
- neuronal death (Fluoro-Jade B) vs vehicle [14, 16]: did not afford a significant decrease in the neuronal damage
- neuronal death (Fluoro-Jade B) vs vehicle ([14]; F2 0.05 mg/kg i.v. between 0 and 6 h after reperfusion, CA1 and cortex): significantly decreased neuronal death
- grip strength ([15]; 0.05 mg/kg F2 i.p. at onset of reperfusion): 110.2±5.14 grams
- grip strength ([15]; 0.1 mg/kg F2 i.p. at onset of reperfusion): 113.2±5.35 grams
- grip strength values vs vehicle ([15]; F2 0.05 or 0.1 mg/kg at onset of reperfusion, 24 h and 48 h after reperfusion): improved grip strength values

Compound: CC(C)(C)[N+]([O-])=Cc1ccc(S(=O)(=O)[O-])cc1S(=O)(=O)[O-].[Na+].[Na+] [NXY-059, reference compound]
- infarct volume (as percentages) ([1]; NXY-059 40.0 mg/kg i.p. at onset of reperfusion): 20.37±0.93%
- therapeutic window (global cerebral ischemia [3]; NXY-059 40 mg/kg i.v., compared to F2): narrow therapeutic window compared to F2
- neuronal apoptosis (TUNEL) vs vehicle ([4]; NXY-059 40 mg/kg i.v. between 0 and 48 h after reperfusion): did not afford a significant decrease in the neuronal apoptosis
- neurological deficit score (NDS) vs vehicle (global cerebral ischemia [5]; NXY-059 40 mg/kg i.v. 0-48 h after reperfusion): did not improve the NDS
- alternation index (spatial recognition test, Y-maze) (global cerebral ischemia [8]): no significant differences when compared to the scores of the control group
- viable neurons (S6-positive cells) in hippocampal CA1 [9]: did not recover the damage observed
- activity index (exploration activity test, Y-maze) (global cerebral ischemia [12]): neurological deficit was similar to the one obtained for VEH
- neuronal death (Fluoro-Jade B) ([14]; NXY-059 40 mg/kg i.v. 1-48 h after reperfusion): did not induce a decrease in neuronal damage
- neuronal death (Fluoro-Jade B) ([14]; NXY-059 40 mg/kg i.v. at reperfusion onset (0 h), 40 mg/kg): lower neuroprotective effect; also recorded: only induced a significant decrease of neuronal damage administered at the onset of the reperfusion
